US20250304578A1, “NITROGEN-CONTAINING FUSED HETEROCYCLIC COMPOUNDS OF N-SULFONAMIDE AND USE THEREOF” (NUTSHELL THERAPEUTICS (SHANGHAI) CO., LTD., priority 2023, published 2025)
Read-outs that look alike come from different tables or passages of the source.

Key:
CYP3A4/5 = assay: Multi-concentration inhibitory activity curve of CYP3A4/5 enzymes; assay type: in vitro ADME; conditions: human liver microsomes
Experimental: (§1) The buffer was filtered through a 0.45 μm filter.
Liver microsome working solution (final system concentration of 0.5 mg/mL) was prepared. […] The above stock solution was diluted with acetonitrile (4-fold dilution, 6 non-zero concentrations).
The half-maximal inhibitory concentration (IC50) was calculated using Graph Pad Prism.

[1] = Metabolic stability in liver microsomes; assay type: in vitro ADME; conditions: for microsomal CLint at 1 μM: read-out: In vitro Clint (μL/min/mg protein); for half-life at 1 μM: read-out: In vitro t1/2
Experimental: The test compound and the positive control compound (dextromethorphan as a control compound) were dissolved respectively in DMSO to prepare a stock solution with a concentration of 10 mM, and the above stock solution was diluted into 200 μM working solution with DMSO. 8.709 g of potassium hydrogen phosphate (K2HPO4) was dissolved in 950 mL of water, and the pH value of the solution was adjusted to 7.4 with hydrochloric acid, and then the volume was adjusted to 1000 mL with water. After filtration using a 0.22 μm filter membrane, the mixture was stored in a 4° C. refrigerator for later use. After liver microsomes of various species (protein concentration of 20 mg/mL) were thawed in a 37° C. water bath, the liver microsomes were diluted with a phosphate buffer respectively to obtain a liver microsome working solution with protein concentration of 0.629 mg/mL. 5 mM NADPH solution was prepared using the above phosphate buffer for later use. 1 mg/mL stock solution of terfenadine/tolbutamide was prepared with DMSO and then diluted with a 50% methanol/50% acetonitrile mixed solution to a reaction stop solution containing 5/10 ng/mL (terfenadine/tolbutamide) internal standard.
238.5 μL of liver microsome working solutions of various species were added to a 1.1 mL microtube, and 1.5 μL of the test compound working solution or the positive control compound (dextromethorphan) working solution (200 μM) was added respectively, mixed well, and pre-incubated in a 37° C. water bath for 5 minutes. 60 μL of NADPH solution was added to start the reaction, and after mixing well, at the time points of 0, 5, 15, 30, and 60 minutes after the reaction, 30 μL of the reaction mixture was respectively pipetted and added to 300 μL of the reaction stop solution. Samples from all time points were vortexed vigorously for 1 minute and centrifuged at 4000 rpm for 15 minutes at 4° C. 100 μL of the supernatant was added to 100 μL of pure water and mixed well for LC-MS/MS analysis.
The slope (ke) was determined by plotting the natural logarithm of the percentage of compound remaining against time, and the Tin and intrinsic clearance (CLint) were calculated based on the first-order kinetic formula: […]
The compound remaining rate is calculated as follows:
Intrinsic clearance CLint (μL/min/mg protein)=0.693*1000/T1/2/protein concentration (0.5 mg protein/mL)

[2] = In vivo pharmacokinetic study in rats; conditions: male, rat, plasma, SD rats
Experimental: (§2) Intravenous injection: 40% HP-β-CD in water; intragastric administration: 0.2% HPC+0.5% Tween80 in water.
6 male rats. Fasting treatment was performed in the evening before the administration, with free access to water. During the experiment, the rats were allowed to eat and drink freely, and administered by intravenous injection or gavage. After administration, the animal status was observed, and abnormal behaviors were recorded. Blood was collected via jugular vein puncture at 0.0833, 0.25, 1, 2, 4, 8, and 24 hours after intravenous injection; Blood was collected via jugular vein puncture at 0.25, 0.5, 1, 2, 4, 6, 8, and 24 hours after intragastric administration. 50 μL of plasma sample was taken and added with 500 μL of acetonitrile (containing dexamethasone as an internal standard) to precipitate proteins. The mixture was centrifuged at 4° C. and 4000 rpm for 20 minutes, and 300 μL of the supernatant was taken and mixed with 300 μL of Watsons aqueous solution in a 96-well plate. Then, 5 μL of the sample was taken for LC-MS/MS detection.
(§3) The standard curve was established using the internal standard method, with the theoretical standard curve concentration as the X-axis and the peak area ratio as the Y-axis (peak area of the test compound/peak area of internal standard). Linear regression method (weighting factor 1/X2) was used, R^2>0.9900. Unknown samples were calculated by the standard curve. Pharmacokinetic parameters were calculated by the non-compartmental analysis model of WinNonlin 8.2 software and were presented in a report, including Clint, Cmax, AUC, etc.

CYP2C19 = CYP2C19 (Homo sapiens (Human), UniProt P33261); assay: Inhibitory activity on CYP isoenzymes at a single concentration; assay type: in vitro ADME; conditions: pH 7.4, probe mephenytoin; final compound concentration 10 μM; human liver microsomes; substrate mephenytoin; NI: no inhibition; read-out: Inhibition rate (%) CYP2C19
Excerpt: as §1

[3] = In vivo pharmacokinetic study in mice; conditions: male, mouse, plasma, CD-1 mice
Experimental: as §2
6 male mice. Fasting treatment was performed in the evening before the administration, with free access to water. During the experiment, the mice were allowed to eat and drink freely, and administered by intravenous injection or gavage. After administration, the animal status was observed, and abnormal behaviors were recorded. Blood was collected from the orbit at 0.0833, 0.25, 1, 2, 4, 8, and 24 hours after intravenous injection, and at 0.25, 0.5, 1, 2, 4, 6, 8, and 24 hours after intragastric administration. 20 μL of plasma sample was taken and added with 250 μL of acetonitrile (containing dexamethasone as an internal standard) to precipitate proteins. The mixture was centrifuged at 4° C. and 4000 rpm for 20 minutes, and 180 μL of the supernatant was taken and mixed with 180 μL of an aqueous solution containing 0.1% formic acid in a 96-well plate. Then, 10 μL of the sample was taken for LC-MS/MS detection.
as §3

[4] = pH 7.4, probe midazolam, substrate midazolam, read-out: CYP3A4/5 IC50 (μM) (Midazolam)
[5] = pH 7.4, probe testosterone, substrate testosterone, read-out: CYP3A4/5 IC50 (μM) (Testosterone)
[6] = ICR/CD-1, pH 7.4, Mouse liver microsomes
[7] = Sprague Dawley, pH 7.4, Rat liver microsomes

CYP2C19, sequence (P33261 whole entry): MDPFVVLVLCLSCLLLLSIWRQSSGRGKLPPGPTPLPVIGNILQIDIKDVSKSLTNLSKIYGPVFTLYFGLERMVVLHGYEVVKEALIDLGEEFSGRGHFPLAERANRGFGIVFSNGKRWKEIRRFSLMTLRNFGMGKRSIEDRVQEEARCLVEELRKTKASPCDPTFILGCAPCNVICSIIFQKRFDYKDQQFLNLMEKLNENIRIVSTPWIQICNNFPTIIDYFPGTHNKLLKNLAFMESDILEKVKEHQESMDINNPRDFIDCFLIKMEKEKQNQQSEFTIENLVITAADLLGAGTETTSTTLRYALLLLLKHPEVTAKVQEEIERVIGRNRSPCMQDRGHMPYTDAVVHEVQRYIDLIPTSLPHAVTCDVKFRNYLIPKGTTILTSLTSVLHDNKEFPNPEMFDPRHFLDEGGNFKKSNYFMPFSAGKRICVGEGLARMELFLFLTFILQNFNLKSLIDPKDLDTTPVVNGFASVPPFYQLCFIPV

| Compound | IC50 at 10 min (CYP3A4/5; [4]) | IC50 at 10 min (CYP3A4/5; [5]) | microsomal CLint at 1 μM [1, 6] | half-life at 1 μM [1, 6] | microsomal CLint at 1 μM [1, 7] | half-life at 1 μM [1, 7] | microsomal CLint at 1 μM ([1]; pH 7.4, Human liver microsomes) | half-life at 1 μM ([1]; pH 7.4, Human liver microsomes) | AUC(0-t) ([2]; IV 1 mg/kg) | AUC(0-t) ([2]; PO 10 mg/kg) | Cmax ([2]; PO 10 mg/kg) | inhibition at 10 min, 10 µM (CYP2C19) | AUC(0-t) ([3]; IV 1 mg/kg) | AUC(0-t) ([3]; PO 10 mg/kg) | Cmax ([3]; PO 10 mg/kg) |
| --- | --- | --- | --- | --- | --- | --- | --- | --- | --- | --- | --- | --- | --- | --- | --- |
| COc1nc(C(=O)NS(C)(=O)=O)ccc1NCC#Cc1cc2c(N[C@@H]3CCN(C)C[C@@H]3F)cccn2c1CC(F)(F)F [Cpd-1, 5-((3-(8-(((3S,4R)-3-Fluoro-1-methylpiperidin-4-yl)amino)-3-(2,2,2-trifluoroethyl)indolizin-2-yl)prop-2-yn-1-yl)amino)-6-methoxy-N-(methylsulfonyl)picolinamide] | > 50 µM | > 50 µM | 13.7 µL/min/mg | 1.2 h | 35 µL/min/mg | 0.467 h | 7.3 µL/min/mg | 2.27 h | – | – | – | – | – | – | – |
| [2H]C([2H])([2H])Oc1nc(C(=O)NS(C)(=O)=O)ccc1NCC#Cc1cc2c(N[C@@H]3CCN(C)C[C@@H]3F)cccn2c1CC(F)(F)F [Cpd-2, 5-((3-(8-(((3S,4R)-3-Fluoro-1-methylpiperidin-4-yl)amino)-3-(2,2,2-trifluoroethyl)indolizin-2-yl)prop-2-yn-1-yl)amino)-6-(methoxy-d3)-N-(methylsulfonyl)picolinamide] | > 50 µM | > 50 µM | 12.6 µL/min/mg | 1.83 h | 11.7 µL/min/mg | 1.98 h | < 5.4 µL/min/mg | > 4.27 h | 8.4 µM·h | 58.4 µM·h | 8.9 µM | 8.4% | 1.7 µM·h | 15.7 µM·h | 5.9 µM |
